The values that follow come from paper PMC6541611, “The UbiX flavin prenyltransferase reaction mechanism resembles class I terpene cyclase chemistry” (Nature Communications, 2019).

Where two headings read alike, the source gives them in different places.

Test [1] deals with T1, AnUbiX (Aspergillus niger, UniProt A3F715).
T1 construct: gene PAD1
T1 sequence (A3F715 1-227): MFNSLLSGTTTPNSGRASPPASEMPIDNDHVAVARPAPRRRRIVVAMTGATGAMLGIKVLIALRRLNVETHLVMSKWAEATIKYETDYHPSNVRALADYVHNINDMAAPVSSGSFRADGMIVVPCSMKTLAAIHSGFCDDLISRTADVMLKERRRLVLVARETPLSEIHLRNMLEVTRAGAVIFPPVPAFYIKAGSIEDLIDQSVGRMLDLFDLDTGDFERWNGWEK
The test is described as follows: crystal structure. The format is binding.

A further test deals with T2, EcUbiX (Escherichia coli, UniProt P0AG03).
T2 construct: gene ubiX
T2 sequence (P0AG03 1-189): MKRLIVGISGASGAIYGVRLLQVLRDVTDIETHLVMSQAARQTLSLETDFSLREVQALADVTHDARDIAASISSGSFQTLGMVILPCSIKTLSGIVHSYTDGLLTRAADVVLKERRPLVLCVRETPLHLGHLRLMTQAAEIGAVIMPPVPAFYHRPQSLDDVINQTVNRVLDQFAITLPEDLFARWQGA
The test is described as follows: UV-Vis single turnover. The format is biochemical.

For test [2], the target named is T1, AnUbiX. The test is described as follows: UV-Vis single turnover. The format is biochemical.

`Cc1cc2nc3c(=O)[nH]c(=O)nc-3n(C[C@H](O)[C@H](O)[C@H](O)COP(=O)(O)O)c2cc1C` [FMN]: the crystal structure entry at AnUbiX [1] was “The crystal structure of AnUbiX in complex with FMN and DMAPP”.

As for `CC(C)=CCOP(=O)(O)OP(=O)(O)O` [DMAPP], the UV-Vis single turnover entry at EcUbiX (2 mM DMAPP, FMNH2, pH 8, prFMN formed) is given as “is only able to catalyse DMAPP-specific prFMNH2 formation under the conditions tested”. For the same compound, the crystal structure entry on AnUbiX [1] (co-purified, no exogenous DMAPP added, with oxidised FMN, pH 6.2) is recorded as “electron density directly located above the oxidised FMN that corresponds to a bound DMAPP”. For the compound `CC(C)=CCOP(=O)(O)O` [DMAP], the UV-Vis single turnover entry on EcUbiX is “AnUbiX and EcUbiX appear to catalyse the prenyltransferase step with DMAP”; on AnUbiX [2], “Crucially, DMAP incubation does affect the resulting FMN spectrum”.
